Counter-ions that a name gives are not always drawn. Some results are limits rather than exact numbers.

Consider `CCCc1nc2c(N)nc3cc(/C=C/c4ccc5sc(C)nc5c4)ccc3c2n1CC(C)C` [Example 441, (E)-7-[2-(2-Methylbenzothiazol-5-yl)vinyl]-1-(2-methylpropyl)-2-propyl-1H-imidazo[4,5-c]quinolin-4-amine], for which the melting point lay in the range of 210 to 212 °C.

`COCc1nc2c(N)nc3cc(-c4cncnc4)ccc3c2n1CC(C)(C)O` [Example 395, 1-[4-Amino-2-methoxymethyl-7-(pyrimidin-5-yl)-1H-imidazo[4,5-c]quinolin-1-yl]-2-methylpropan-2-ol] had a melting point of 220 to 220.5 °C.

`CCCCn1c(COCC)nc2c(N)nc3ccc(-c4ccccc4)cc3c21` [Example 18, 1-Butyl-2-ethoxymethyl-8-phenyl-1H-imidazo[4,5-c]quinolin-4-amine] yielded a melting point of 186 to 187 °C.

`CCCc1nc2c(N)nc3cc(-c4cccnc4)ccc3c2n1CCCCNC(=O)C(C)C` (hydrate or solvate) [Example 381, N-{4-[4-Amino-2-propyl-7-(pyridin-3-yl)-1H-imidazo[4,5-c]quinolin-1-yl]butyl}-2-methylpropanamide] returned a melting point of 168 to 170 °C.

Molecule `CCCNC(=O)NCCCCn1c(CCC)nc2c(N)nc3cc(-c4cccnc4)ccc3c21` (hydrate or solvate) [Example 384] displayed a melting point of 184 to 185 °C.

`CC(C)Cn1cnc2c(N)nc3ccc(-c4csc5ccccc45)cc3c21` [Example 121, 8-Benzo[b]thiophen-3-yl-1-(2-methylpropyl)-1H-imidazo[4,5-c]quinolin-4-amine] came in with a melting point of 247 to 248 °C.

For `CCOCc1nc2c(N)nc3cc(-c4ccc(C#N)cc4)ccc3c2n1CC(C)C` [Example 110, 4-(4-Amino-2-ethoxymethyl-1-(2-methylpropyl)-1H-imidazo[4,5-c]quinolin-7-yl)benzonitrile], the melting point lay within 211 to 212 °C.

In turn, `CCOCc1nc2c(N)nc3ccc(-c4cncc(CO)c4)cc3c2n1CC(C)(C)O` [Example 150, 1-[4-Amino-2-ethoxymethyl-8-(5-hydroxymethylpyridin-3-yl)-1H-imidazo[4,5-c]quinolin-1-yl]-2-methylpropan-2-ol] displayed a melting point of 230 to 232 °C.

`COCc1nc2c(N)nc3cc(-c4cncc(OC)c4)ccc3c2n1CC(C)(C)O` [Example 400, 1-[4-Amino-2-methoxymethyl-7-(5-methoxypyridin-3-yl)-1H-imidazo[4,5-c]quinolin-1-yl]-2-methylpropan-2-ol]: the melting point is 234 to 236 °C.

In turn, `COCCc1nc2c(N)nc3ccc(-c4csc5ccccc45)cc3c2n1CCCN1CCCC1=O` [Example 190, 1-{3-[4-amino-8-(benzo[b]thiophen-3-yl)-2-(2-methoxyethyl)-1H-imidazo[4,5-c]quinolin-1-yl]propyl}pyrrolidin-2-one] displayed a melting point of 202 to 205 °C.

In turn, `CCOCc1nc2c(N)nc3cc(-c4cccnc4)ccc3c2n1CCCCN1CCCS1(=O)=O` [Example 153, 1-[4-(1,1-Dioxidoisothiazolidin-2-yl)-butyl]-2-ethoxymethyl-7-(pyridin-3-yl)-1H-imidazo[4,5-c]quinolin-4-amine] had a melting point of 171 to 173 °C.

In the case of `CCOCc1nc2c(N)nc3cc(-c4cccnc4)ccc3c2n1CC(C)(C)OCCS(C)(=O)=O` [Example 363, 2-Ethoxymethyl-1-{2-[2-(methanesulfonyl)ethoxy]-2-methylpropyl}-7-(pyridin-3-yl)-1H-imidazo[4,5-c]quinolin-4-amine], the melting point lay within 202 to 204 °C.

Molecule `CCCc1nc2c(N)nc3ccc(Cc4ccccc4)cc3c2n1CC(C)(C)O` [Example 435, 1-(4-Amino-8-benzyl-2-propyl-1H-imidazo[4,5-c]quinolin-1-yl)-2-methylpropan-2-ol] displayed a melting point of 191 to 192 °C.

Regarding `CCOCc1nc2c(N)nc3cc(-c4cccc(C(=O)O)c4)ccc3c2n1CC(C)(C)O` [Example 135, 3-[4-Amino-2-ethoxymethyl-1-(2-hydroxy-2-methylpropyl)-1H-imidazo[4,5-c]quinolin-7-yl]benzoic acid], the melting point was greater than 250 °C.

On to `CCOCc1nc2c(N)nc3cc(-c4ccccc4)ccc3c2n1CC1CCN(S(C)(=O)=O)CC1` [Example 193, 2-Ethoxymethyl-1-{[1-(methanesulfonyl)piperidin-4-yl]methyl}-7-phenyl-1H-imidazo[4,5-c]quinolin-4-amine], for which the melting point was 224 to 225 °C.

Take `CCCc1nc2c(N)nc3cc(-c4cccnc4)ccc3c2n1CC1CCN(C(=O)C(C)C)CC1` [Example 412, 1-{4-[4-Amino-2-propyl-7-(pyridin-3-yl)-1H-imidazo[4,5-c]quinolin-1-ylmethyl]piperidin-1-yl}-2-methylpropan-1-one]: the melting point lay in the range of 248 to 249 °C.

Molecule `CCOCc1nc2c(N)nc3cc(-c4cccnc4)ccc3c2n1C[C@@H](O)CO` [Example 488, (R)-3-[4-Amino-2-ethoxymethyl-7-(pyridin-3-yl)-1H-imidazo[4,5-c]quinolin-1-yl]propane-1,2-diol] had a melting point of 202 to 204 °C.

`CCOCc1nc2c(N)nc3cc(-c4ccccc4)ccc3c2n1CC(C)C` [Example 108, 2-Ethoxymethyl-1-(2-methylpropyl)-7-phenyl-1H-imidazo[4,5-c]quinolin-4-amine] returned a melting point of 176.5 to 178 °C.

As for `CCOCc1nc2c(N)nc3c(-c4cccc(CS(N)(=O)=O)c4)cccc3c2n1CC(C)(C)O` [Example 484, {3-[4-Amino-2-ethoxymethyl-1-(2-hydroxy-2-methylpropyl)-1H-imidazo[4,5-c]quinolin-6-yl]phenyl}methanesulfonamide], the melting point fell in the range of 234 to 235 °C.

Take `CCCCCCCCCCCCCCCC(=O)N1CCC(Cn2c(COCC)nc3c(N)nc4cc(-c5cccnc5)ccc4c32)CC1` (hydrate or solvate) [Example 181, 2-Ethoxymethyl-1-[(1-palmitoylpiperidin-4-yl)methyl]-7-(pyridin-3-yl)-1H-imidazo[4,5-c]quinolin-4-amine]: the melting point lay within 72 to 75 °C.

`CCOCc1nc2c(N)nc3cc(-c4ccccc4)ccc3c2n1CC(C)(C)NC(=O)C1CCCCC1` [Example 202, Cyclohexane N-[2-(4-amino-2-ethoxymethyl-7-phenyl-1H-imidazo[4,5-c]quinolin-1-yl)-1,1-dimethylethyl]carboxamide] returned a melting point of 195 to 198 °C.

With `COCCc1nc2c(N)nc3cc(-c4cccc(CO)c4)ccc3c2n1CC(C)(C)O` [Example 140, 1-[4-Amino-7-(3-hydroxymethylphenyl)-2-(2-methoxyethyl)-1H-imidazo[4,5-c]quinolin-1-yl]-2-methylpropan-2-ol], the melting point lay within 212 to 213 °C.

`CCOCc1nc2c(N)nc3cc(-c4cccnc4)ccc3c2n1CCCCNS(C)(=O)=O` (hydrate or solvate) [Example 375, N-{4-[4-Amino-2-ethoxymethyl-7-(pyridin-3-yl)-1H-imidazo[4,5-c]quinolin-1-yl]butyl}methanesulfonamide]: the melting point is 186 to 188 °C.

In turn, `CCOCc1nc2c(N)nc3cc(-c4ccc(N(C)C)cc4)ccc3c2n1CC(C)C` [Example 114, 7-(4-Dimethylaminophenyl)-2-ethoxymethyl-1-(2-methylpropyl)-1H-imidazo[4,5-c]quinolin-4-amine] registered a melting point of 214.5 to 215.5 °C.

Take `CCCNC(=O)NCCCCn1c(COCC)nc2c(N)nc3cc(-c4cccnc4)ccc3c21` [Example 378, N-{4-[4-Amino-2-ethoxymethyl-7-(pyridin-3-yl)-1H-imidazo[4,5-c]quinolin-1-yl]butyl}-N′-propylurea]: the melting point fell in the range of 191 to 193 °C.

As for `CCCc1nc2c(N)nc3cc(-c4cccnc4)ccc3c2n1CC1CCN(C(=O)OC(C)(C)C)CC1` [Example 409, tert-Butyl 4-{[4-amino-2-propyl-7-(pyridin-3-yl)-1H-imidazo[4,5-c]quinolin-1-yl]methyl}piperidine-1-carboxylate], the melting point was 209 to 211 °C.

In turn, `CC(=O)c1cccc(-c2ccc3nc(N)c4ncn(CC(C)C)c4c3c2)c1` [Example 120, 1-{3-[4-Amino-1-(2-methylpropyl)-1H-imidazo[4,5-c]quinolin-8-yl]phenyl}ethanone] had a melting point of 217 to 218 °C.

Molecule `CCCCc1nc2c(N)nc3cc(-c4ccsc4)ccc3c2n1CC(C)C` [Example 1, 2-Butyl-1-isobutyl-7-(thiophen-3-yl)-1H-imidazo[4,5-c]quinolin-4-amine] registered a melting point of 229 to 230 °C.

With `CCOCc1nc2c(N)nc3cc(-c4ccc(C(=O)N5CCOCC5)cc4)ccc3c2n1CCCOC` [Example 170, {4-[4-Amino-2-ethoxymethyl-1-(3-methoxypropyl)-1H-imidazo[4,5-c]quinolin-7-yl]phenyl}morpholin-4-ylmethanone], the melting point fell in the range of 163 to 165 °C.

Take `CCOCc1nc2c(N)nc3cc(-c4cccc(C(=O)N5CCCC5)c4)ccc3c2n1CCCOC` (as salt: HCl) [Example 175, {3-[4-Amino-2-ethoxymethyl-1-(3-methoxypropyl)-1H-imidazo[4,5-c]quinolin-7-yl]phenyl}pyrrolidin-1-ylmethanone]: the melting point was 145 to 146 °C.

`CCOCc1nc2c(N)nc3cc(-c4cn[nH]c4)ccc3c2n1CC(C)(C)O` [Example 128, 1-[4-Amino-2-ethoxymethyl-7-(1H-pyrazol-4-yl)-1H-imidazo[4,5-c]quinolin-1-yl]-2-methylpropan-2-ol] displayed a melting point greater than 250 °C.

`CCOCc1nc2c(N)nc3cc(-c4cccnc4)ccc3c2n1CCCCS(N)(=O)=O` [Example 368, 4-[4-Amino-2-ethoxymethyl-7-(pyridin-3-yl)-1H-imidazo[4,5-c]quinolin-1-yl]butane-1-sulfonamide] registered a melting point of 250 to 251.5 °C.

Regarding `CCCCc1nc2c(N)nc3cc(-c4ccccc4)ccc3c2n1CCCS(C)(=O)=O` [Example 10, 2-Butyl-1-(3-methanesulfonylpropyl)-7-phenyl-1H-imidazo[4,5-c]quinolin-4-amine], the melting point lay in the range of 214 to 216 °C.

Molecule `CCOCc1nc2c(N)nc3ccc(Cc4ccccc4)cc3c2n1CC(C)(C)O` [Example 436, 1-(4-Amino-8-benzyl-2-ethoxymethyl-1H-imidazo[4,5-c]quinolin-1-yl)-2-methylpropan-2-ol] showed a melting point of 209 to 210 °C.

For the origin of these results see patent publication US7598382B2, “Aryl substituted imidazoquinolines” (Coley Pharmaceutical Group, Inc., priority 2002, dated 2009).
